Our source for the IC50 values is patent publication US7816371B2, “Bicycloheteroaryl compounds as P2X7 modulators and uses thereof” (Renovis, Inc., priority 2006, dated 2010).

The target in the test is T1, P2X7 receptor (Homo sapiens, UniProt Q99572).
T1 construct: host or cells: THP-1 cells differentiated with LPS and IFN-γ
T1 sequence (Q99572 1-595): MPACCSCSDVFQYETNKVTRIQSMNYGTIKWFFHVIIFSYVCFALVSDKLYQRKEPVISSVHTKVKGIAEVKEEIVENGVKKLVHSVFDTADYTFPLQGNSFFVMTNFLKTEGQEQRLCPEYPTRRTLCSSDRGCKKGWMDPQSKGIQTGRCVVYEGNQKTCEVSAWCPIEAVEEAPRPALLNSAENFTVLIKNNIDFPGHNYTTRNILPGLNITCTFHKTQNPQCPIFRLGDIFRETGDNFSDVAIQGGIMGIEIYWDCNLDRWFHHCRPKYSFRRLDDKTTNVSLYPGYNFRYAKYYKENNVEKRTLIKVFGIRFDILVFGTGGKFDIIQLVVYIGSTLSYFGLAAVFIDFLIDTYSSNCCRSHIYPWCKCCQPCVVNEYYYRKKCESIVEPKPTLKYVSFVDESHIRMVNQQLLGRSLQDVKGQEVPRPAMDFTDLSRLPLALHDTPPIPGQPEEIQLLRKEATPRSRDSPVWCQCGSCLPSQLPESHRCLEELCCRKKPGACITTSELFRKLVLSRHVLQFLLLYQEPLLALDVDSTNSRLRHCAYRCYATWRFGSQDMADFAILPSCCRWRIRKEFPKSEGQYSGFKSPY
Put plainly: IL-1β release assay in differentiated THP-1 cells stimulated with BzATP (Example 9); % inhibition and IC50. The format is cell-based. The following applies: THP-1 cells differentiated with LPS and IFN-γ, 30 min pretreatment, BzATP 250 uM, IL-1β by ELISA. A digest of the protocol: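 Differentiated THP-1 cells pretreated 30 min with compound in RPMI before BzATP stimulation. Supernatant IL-1β measured by ELISA. Percent inhibition derived from background-adjusted IL-1β of treated versus untreated cells.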
Regarding `C[C@H](C(=O)Nc1cccc2c(=O)n([C@H](C)C(=O)O)ccc12)c1ccc(Cl)cc1` [Compound 322, (R)-2-{5-[(S)-2-(4-Chloro-phenyl)-propionylamino]-1-oxo-1H-isoquinolin-2-yl}-propionic acid], the half-inhibitory concentration (IC50) was 572 nM.

With `CC(C)[C@H](C(=O)O)n1ccc2c(NC(=O)[C@@H](C)c3ccc(Cl)cc3)cccc2c1=O` [Compound 323, (R)-2-{5-[(S)-2-(4-Chloro-phenyl)-propionylamino]-1-oxo-1H-isoquinolin-2-yl}-3-methyl-butyric acid], the IC50 came to 320 nM.

With `C[C@H](CO)n1ccc2c(NC(=O)Cc3cccc(C(F)(F)F)c3F)cccc2c1=O` [Compound 324], the half-maximal inhibitory concentration (IC50) was 22.1 nM.

As for `C[C@@H](CO)n1ccc2c(NC(=O)Cc3cccc(C(F)(F)F)c3F)cccc2c1=O` [Compound 325], the IC50 is 84.6 nM.

As to `C[C@H](C(=O)Nc1cccc2c(=O)n([C@@H](C)CO)ccc12)c1ccc(Cl)c(Cl)c1` [Compound 326], the half-inhibitory concentration (IC50) turned out to be 122 nM.

`C[C@H](CO)n1ccc2c(NC(=O)Cc3ccc(Cl)cc3F)cccc2c1=O` [Compound 327]: the 50% inhibitory concentration (IC50) was determined as 39.4 nM.

In the case of `C[C@@H](CO)n1ccc2c(NC(=O)Cc3ccc(Cl)cc3F)cccc2c1=O` [Compound 328], the 50% inhibitory concentration (IC50) worked out at 202 nM.

Consider `C[C@H](CO)n1ccc2c(NC(=O)Cc3ccc(F)c(Cl)c3)cccc2c1=O` [Compound 329], for which the IC50 amounted to 206 nM.

For `C[C@H](CO)n1ccc2c(NC(=O)Cc3ccc(Cl)c(F)c3)cccc2c1=O` [Compound 330, 2-(4-Chloro-3-fluorophenyl)-N-[2-((R)-2-hydroxy-1-methyl-ethyl)-1-oxo-1,2-dihydro-isoquinolin-5-yl]-acetamide], the IC50 stood at 13.3 nM.

In the case of `C[C@@H](CO)n1ccc2c(NC(=O)Cc3ccc(F)c(Cl)c3)cccc2c1=O` [Compound 331], the IC50 came out at 163 nM.

Turning to `C[C@H](CO)n1ccc2c(NC(=O)Cc3ccc(Cl)c(Cl)c3)cccc2c1=O` [Compound 333, 2-(3,4-Dichloro-phenyl)-N-[2-((R)-2-hydroxy-1-methyl-ethyl)-1-oxo-1,2-dihydro-isoquinolin-5-yl]-acetamide], the IC50 stood at 1.01 nM.

In the case of `C[C@@H](CO)n1ccc2c(NC(=O)Cc3ccc(Cl)c(F)c3)cccc2c1=O` [Compound 334], the IC50 came out at 202 nM.

In the case of `C[C@H](CO)n1ccc2c(NC(=O)Cc3ccc(C(F)(F)F)c(F)c3)cccc2c1=O` [Compound 335], the 50% inhibitory concentration (IC50) is 9.31 nM.

As for `C[C@@H](CO)n1ccc2c(NC(=O)Cc3ccc(C(F)(F)F)c(F)c3)cccc2c1=O` [Compound 336], the 50% inhibitory concentration (IC50) worked out at 49.8 nM.

As to `CC(C(=O)Nc1cccc2c(=O)n([C@H](C)C(N)=O)ccc12)c1cccc(C(F)(F)F)c1F` (stereo partly shown) [Compound 337], the IC50 stood at 9.15 nM.

With `C[C@@H](CO)n1ccc2c(NC(=O)Cc3ccc(F)c(C(F)(F)F)c3)cccc2c1=O` [Compound 338], the IC50 was found to be 48.1 nM.

`C[C@H](CO)n1ccc2c(NC(=O)Cc3ccc(F)c(C(F)(F)F)c3)cccc2c1=O` [Compound 339]: the IC50 is 10.5 nM.

`O=C(Cc1ccc(F)c(Cl)c1)Nc1cccc2c(=O)n(CCO)ccc12` [Compound 341]: the IC50 stood at 52.6 nM.

Regarding `C[C@H](C(N)=O)n1ccc2c(NC(=O)Cc3ccc(Cl)cc3F)c(Cl)ccc2c1=O` [Compound 343], the IC50 turned out to be 395 nM.

With `C[C@@H](C(N)=O)n1ccc2c(NC(=O)Cc3ccc(F)c(Cl)c3)cccc2c1=O` [Compound 346], the IC50 is 66.9 nM.

Consider `C[C@@H](C(N)=O)n1ccc2c(NC(=O)Cc3ccc(C(F)(F)F)c(F)c3)cccc2c1=O` [Compound 347], for which the IC50 is 31.2 nM.

For the molecule `C[C@@H](C(N)=O)n1ccc2c(NC(=O)Cc3ccc(F)c(C(F)(F)F)c3)cccc2c1=O` [Compound 348], the half-inhibitory concentration (IC50) was 20.8 nM.

As to `C[C@@H](C(N)=O)n1ccc2c(NC(=O)Cc3cccc(C(F)(F)F)c3F)cccc2c1=O` [Compound 349], the half-inhibitory concentration (IC50) is 48.9 nM.

Consider `C[C@@H](C(N)=O)n1ccc2c(NC(=O)Cc3ccc(Cl)cc3F)cccc2c1=O` [Compound 350], for which the IC50 was 13.6 nM.

Regarding `C[C@@H](C(N)=O)n1ccc2c(NC(=O)Cc3ccc(C(F)(F)F)cc3)cccc2c1=O` [Compound 351], the half-maximal inhibitory concentration (IC50) came to 35.8 nM.

For the molecule `C[C@@H](C(N)=O)n1ccc2c(NC(=O)Cc3ccc(Cl)c(F)c3)cccc2c1=O` [Compound 352], the IC50 was found to be 32.7 nM.

As for `C[C@@H](C(N)=O)n1ccc2c(NC(=O)Cc3ccc(Cl)c(C(F)(F)F)c3)cccc2c1=O` [Compound 353], the half-maximal inhibitory concentration (IC50) stood at 29.6 nM.

Turning to `O=C(Cc1ccc(Cl)c(F)c1)Nc1cccc2c(=O)n(CCO)ccc12` [Compound 354], the IC50 was found to be 84.2 nM.

As for `CC(C(=O)Nc1cccc2c(=O)n([C@@H](C)C(N)=O)ccc12)c1cccc(C(F)(F)F)c1F` (stereo partly shown) [Compound 355], the half-inhibitory concentration (IC50) was 36.9 nM.

On to `CC(C(=O)Nc1cccc2c(=O)n([C@@H](C)C(N)=O)ccc12)c1ccc(Cl)c(C(F)(F)F)c1` (stereo partly shown) [Compound 356], for which the IC50 was found to be 15.5 nM.

On to `O=C(Cc1ccc(C(F)(F)F)c(F)c1)Nc1cccc2c(=O)n(CCO)ccc12` [Compound 357], for which the half-maximal inhibitory concentration (IC50) came to 14.6 nM.

Regarding `C[C@H](CO)n1ccc2c(NC(=O)Cc3ccc(C(F)(F)F)cc3F)cccc2c1=O` [Compound 359], the concentration for half-maximal inhibition (IC50) was found to be 43.1 nM.

For `C[C@H](CO)n1ccc2c(NC(=O)Cc3ccc(C(F)(F)F)cc3C(F)(F)F)cccc2c1=O` [Compound 361], the IC50 amounted to 14.3 nM.

On to `C[C@H](CO)n1ccc2c(NC(=O)Cc3ccc(Cl)c(C(F)(F)F)c3)cccc2c1=O` [Compound 362], for which the IC50 worked out at 1.14 nM.

For `CC(C)(CO)n1ccc2c(NC(=O)Cc3ccc(C(F)(F)F)cc3)cccc2c1=O` [Compound 363], the IC50 worked out at 167 nM.

`CC(C)(CO)n1ccc2c(NC(=O)Cc3ccc(C(F)(F)F)c(F)c3)cccc2c1=O` [Compound 365]: the IC50 turned out to be 41.1 nM.

Take `CC(C)(CO)n1ccc2c(NC(=O)Cc3ccc(C(F)(F)F)cc3C(F)(F)F)cccc2c1=O` [Compound 366]: the concentration for half-maximal inhibition (IC50) was 789 nM.

For the molecule `CC(C)(CO)n1ccc2c(NC(=O)Cc3ccc(F)c(C(F)(F)F)c3)cccc2c1=O` [Compound 367], the half-maximal inhibitory concentration (IC50) is 106 nM.

For the molecule `CC(C)(CO)n1ccc2c(NC(=O)Cc3cccc(C(F)(F)F)c3F)cccc2c1=O` [Compound 368], the IC50 was determined as 60.3 nM.

With `CC(C)(CO)n1ccc2c(NC(=O)Cc3ccc(Cl)c(C(F)(F)F)c3)cccc2c1=O` [Compound 369, 2-(4-Chloro-3-trifluoromethyl-phenyl)-N-[2-(2-hydroxy-1,1-dimethyl-ethyl)-1-oxo-1,2-dihydro-isoquinolin-5-yl]-acetamide], the IC50 was found to be 15 nM.

Regarding `CC(C)(CO)n1ccc2c(NC(=O)Cc3ccc(C(F)(F)F)cc3F)cccc2c1=O` [Compound 370], the half-maximal inhibitory concentration (IC50) stood at 134 nM.

Consider `CC(C)(CO)n1ccc2c(NC(=O)Cc3ccc(Cl)c(Cl)c3)cccc2c1=O` [Compound 371], for which the 50% inhibitory concentration (IC50) was 157 nM.

Regarding `CC(C)(CO)n1ccc2c(NC(=O)Cc3ccc(F)c(Cl)c3)cccc2c1=O` [Compound 372], the IC50 came out at 421 nM.

On to `CC(C)(CO)n1ccc2c(NC(=O)Cc3ccc(Cl)c(F)c3)cccc2c1=O` [Compound 373], for which the IC50 was 258 nM.

For `CC(C)(CO)n1ccc2c(NC(=O)Cc3ccc(Cl)cc3F)cccc2c1=O` [Compound 374], the IC50 was determined as 175 nM.

For the molecule `C[C@H](CO)n1ccc2c(NC(=O)Cc3ccc(C(F)(F)F)c(F)c3)c(Cl)ccc2c1=O` [Compound 375, N-[6-Chloro-2-((R)-2-hydroxy-1-methyl-ethyl)-1-oxo-1,2-dihydro-isoquinolin-5-yl]-2-(3-fluoro-4-trifluoromethyl-phenyl)-acetamide], the concentration for half-maximal inhibition (IC50) is 4.65 nM.

With `C[C@H](CO)n1ccc2c(NC(=O)Cc3ccc(F)c(C(F)(F)F)c3)c(Cl)ccc2c1=O` [Compound 377, N-[6-Chloro-2-((R)-2-hydroxy-1-methyl-ethyl)-1-oxo-1,2-dihydro-isoquinolin-5-yl]-2-(4-fluoro-3-trifluoromethyl-phenyl)-acetamide], the IC50 amounted to 0.38 nM.

In the case of `C[C@H](C(N)=O)n1ccc2c(NC(=O)Cc3ccc(F)c(F)c3F)cccc2c1=O` [Compound 379], the IC50 was determined as 30.4 nM.

Turning to `C[C@H](C(N)=O)n1ccc2c(NC(=O)Cc3ccc(C(F)(F)F)cc3C(F)(F)F)cccc2c1=O` [Compound 380], the 50% inhibitory concentration (IC50) stood at 64.3 nM.

On to `C[C@H](C(N)=O)n1ccc2c(NC(=O)Cc3cc(F)c(F)c(F)c3)cccc2c1=O` [Compound 381], for which the half-inhibitory concentration (IC50) was found to be 32.4 nM.

With `O=C(Cc1cccc(C(F)(F)F)c1F)Nc1c(NCCO)ccc2c(=O)n(CCO)ccc12` [Compound 385, 2-(2-Fluoro-3-trifluoromethyl-phenyl)-N-[2-(2-hydroxy-ethyl)-6-(2-hydroxy-ethylamino)-1-oxo-1,2-dihydro-isoquinolin-5-yl]-acetamide], the half-inhibitory concentration (IC50) was above 1000 nM.

On to `O=C(Cc1ccc(F)c(C(F)(F)F)c1)Nc1c(Cl)ccc2c(=O)n(CCO)ccc12` [Compound 386, N-[6-Chloro-2-(2-hydroxy-ethyl)-1-oxo-1,2-dihydro-isoquinolin-5-yl]-2-(4-fluoro-3-trifluoromethyl-phenyl)-acetamide], for which the IC50 amounted to 5.45 nM.
